Data set [1] has as its system Leishmania donovani. The data set can be described thus: microbe, parasite or virus in culture. To be noted: THP-1, 48 h.
Description: Antileishmanial activity against Leishmania donovani amastigotes infected in human THP1 cells at 10 to 210 uM incubated for 48 hrs by Giemsa staining based optical microscopy
Data set [2] is described as follows: Cytotoxicity against human THP1 cells incubated for 92 hrs by MTT assay. The class given is cell-based. The settings on record: THP-1 cells. On the technique in general: Formazan colour is commonly taken as a measure of viable cells.
Data set [3] relates to THP-1. The data set can be described thus: Induction of iNOS2 mRNA expression in human THP1 cells infected with Leishmania donovani amastigotes at 0.93 uM incubated for 5 hrs by RT-PCR method. Format: functional, cell-based.
Data set [4] can be described thus: (§1) Selectivity index, ratio of CC50 for human THP1 cells to IC50 for Leishmania donovani amastigotes infected in human THP1 cells. Format: functional, THP-1.
Data set [5] deals with THP-1. The data set can be described thus: Induction of nitric oxide production in human THP1 cells infected with Leishmania donovani amastigotes at 0.93 uM incubated for 48 hrs by Griess assay relative to untreated control. The class given is functional. (The Griess reaction detects nitrite, a stable product of nitric oxide.)
Data set [6] has as its system Leishmania donovani. The data set can be described thus: Antileishmanial activity against Leishmania donovani AG83 promastigotes assessed as parasite growth inhibition incubated for 92 hrs by MTT assay. The settings on record: AG83, 92 h. Format: functional, organism-based.
The subject of data set [7] is Leishmania donovani. The data set can be described thus: Antileishmanial activity against Leishmania donovani amastigotes infected in human THP1 cells assessed as parasite growth inhibition at 100 uM incubated for 48 hrs by Giemsa staining based optical microscopy. Format: functional. The settings on record: THP-1, 48 h, read-out: GI.
Data set [8] concerns THP-1. The data set can be described thus: Induction of nitric oxide production in human THP1 cells infected with Leishmania donovani amastigotes at 32.3 uM incubated for 48 hrs by Griess assay relative to untreated control. Format: functional, cell-based.
Data set [9] concerns THP-1. The description is as §1. Format: functional.
Data set [10] relates to Leishmania donovani. The data set can be described thus: Antileishmanial activity against Leishmania donovani. Format: functional, organism-based.

Activity calls are given as the source filed them. The rule behind the calls is not given here. Bounds are passed on as bounds.

In the case of `COc1cc(O)c2c(=O)c(OC)c(-c3cc(O)c(O)c(OC)c3)oc2c1`, the results for the IC50 in data set [1] and in [6] were 0.93 µM and 2.4 µM, respectively. Further, the CC50 (commonly the concentration giving 50% cytotoxicity) at 92 h in data set [2] is 124 µM. The outcome in [3] was Active. Besides, the “Ratio CC50/IC50” value in data set [4] was 133.01. For the same compound, the “fold change (FC)” value in [5] is recorded as 8.4. For the same compound, the IC90 (as a rule, the concentration at which the effect reaches the 90% level) in [6] was found to be 28.1 µM. For the same compound, in data set [7], the inhibition of growth at 100 µM was determined as 100%.
With sodium antimonygluconate, in [8], the result was inactive. Besides, the Ratio CC50/IC50 in data set [9] amounted to 10.1.
For `COc1cc(-c2oc3cc(O)cc(O)c3c(=O)c2O)cc(OC)c1OC`, the IC50 – broadly, the concentration that gives 50% inhibition – in data set [10] is greater than 30 µg/mL.

The values are drawn from ChEMBL document CHEMBL3351478 (Eur J Med Chem, 2014).
